Data reported in patent US10882869B2, “Condensed heterocyclic compounds and pesticides” (NISSAN CHEMICAL CORPORATION, priority 2015, dated 2021).

How the values were obtained:
Format in all cases: in vivo
Nilaparvata lugens [1] = assay: Insecticidal test on Nilaparvata lugens (rice sheaths soaked); details: 144 h, 500 ppm solution, 3rd-instar larvae, 6 days after, 25° C.
Method: Rice sheaths were soaked in the solutions for about 10 seconds. After the soaking, the rice sheaths were dried in air and put in test tubes. In each tube, five 3rd-instar larvae of Nilaparvata lugens were released, and the tubes were capped with sponge and placed in an incubator at 25° C. 6 Days after, dead insects in the test tubes were counted, and the mortality (%) (the number of dead insects÷the number of released insects×100) was calculated. The test was carried out in duplicate.

Plutella xylostella = assay: Insecticidal test on Plutella xylostella (cabbage leaves soaked); details: 144 h, 500 ppm solution, 3rd-instar larvae, 6 days after, 25° C.
Method: (§1) Leaves of cabbage were soaked in the solutions for about 10 seconds. After the soaking, the leaves were dried in air and placed in dishes. In each dish, five 3rd-instar larvae of Plutella xylostella were released, and the dishes were covered with lids and placed in an incubator at 25° C. 6 Days after, dead insects in the dishes were counted, and the mortality was calculated by using the same equation as in Test Example 1. The test was carried out in duplicate.

Spodoptera litura = assay: Insecticidal test on Spodoptera litura (cabbage leaves soaked); details: 144 h, 500 ppm solution, 3rd-instar larvae, 6 days after, 25° C.
Method: as §1, with “Spodoptera litura” for “Plutella xylostella”

Myzus persicae = assay: Insecticidal test on Myzus persicae (cabbage leaf spray); details: 144 h, 500 ppm solution sprayed (2.5 mg/cm^2), apterous adults on cabbage leaves, 6 days after, 25° C.
Method: Wet absorbent cotton was laid on glass dishes having an inner diameter of 3 cm, and covered with leaves of cabbage cut into circles of the same diameter, and 4 apterous adults of Myzus persicae were released. […] The solutions were sprayed from a rotary spray tower (2.5 mg/cm^2), and the dishes were covered with lids and placed in an incubator at 25° C. 6 Days after, dead insects were counted, and the mortality was calculated by using the same equation as in Test Example 1. The test was carried out in duplicate.

Ctenocephalides felis = assay: Test on the effect on Ctenocephalides felis (thin film in glass container); details: 96 h, application dose 10 μg/cm^2, adults, 4 days after release, 25° C.
Method: 350 μl of the solutions were applied to the bottoms and the side walls of glass containers with an inner wall surface area of 35 cm^2, and acetone was volatilized to prepare thin films of the compounds on the inner walls of the glass containers. Since the inner wall surface area of each glass container was 35 cm^2, the application dose was 10 μg/cm^2.
To each glass container, five adults (male and female) of Ctenocephalides felis were released, and the containers were covered with lids and placed in an incubator at 25° C. 4 Days after the release of the fleas, dead fleas were counted, and the mortality was calculated by using the same equation as in Test Example 1.

Nilaparvata lugens [2] = assay: Systemic insecticidal test on Nilaparvata lugens (rice seedling root dip); details: 20 ppm solution, rice seedling roots dipped 7 days, 3rd-instar larvae, 6 days after release, 25° C.
Method: 7 Days after, the rice seedlings were picked and put in test tubes, and in each tube, five 3rd-instar larvae of Nilaparvata lugens were released, and the tubes were capped with sponge and placed in an incubator at 25° C. 6 Days after the release of the insects, dead insects were counted, and the mortality (%) (the number of dead insects÷the number of released insects×100) was calculated. The test was carried out in duplicate.

Compound	mortality at 500 ppm (Nilaparvata lugens [1])	mortality at 500 ppm (Plutella xylostella)	mortality at 500 ppm (Spodoptera litura)	mortality at 500 ppm (Myzus persicae)	mortality at 10 µg/cm2 (Ctenocephalides felis)	mortality at 20 ppm (Nilaparvata lugens [2])
CCS(=O)(=O)c1c(-c2nc3cc(C(F)(F)F)cnc3n2C)nc2cc(C(F)(F)F)c(Br)cn12 [1-1-023a, 2-[6-bromo-3-(ethylsulfonyl)-7-(trifluoromethyl)imidazo[1,2-a]pyridin-2-yl]-3-methyl-6-(trifluoromethyl)-3H-imidazo[4,5-b]pyridine]	≥ 90%	≥ 90%	≥ 90%	≥ 90%	≥ 50%	
CCSc1c(-c2nc3cc(C(F)(F)F)cnc3n2C)nc2cc(C(F)(F)F)c(Br)cn12 [1-1-023b, 2-[6-bromo-3-(ethylthio)-7-(trifluoromethyl)imidazo[1,2-a]pyridin-2-yl]-3-methyl-6-(trifluoromethyl)-3H-imidazo[4,5-b]pyridine]		≥ 90%	≥ 90%		≥ 50%	
CCS(=O)(=O)c1c(-c2nc3cc(SC(F)(F)F)cnc3n2C)nc2cc(C(F)(F)F)ccn12 [1-1-027a, 2-[3-(ethylsulfonyl)-7-(trifluoromethyl)imidazo[1,2-a]pyridin-2-yl]-3-methyl-6-((trifluoromethyl)thio)-3H-imidazo[4,5-b]pyridine]		≥ 90%	≥ 90%	≥ 90%	≥ 50%	
CCSc1c(-c2nc3ccc(C(F)(F)F)nc3n2C)nc2cc(C(F)(F)F)ccn12 [1-1-030b, 2-[3-(ethylthio)-7-(trifluoromethyl)imidazo[1,2-a]pyridin-2-yl]-3-methyl-5-(trifluoromethyl)-3H-imidazo[4,5-b]pyridine]		≥ 90%	≥ 90%			
CCS(=O)(=O)c1c(-c2nc3cc(C(F)(F)F)cnc3n2C)nc2ncc(C(F)(F)F)cn12 [1-1-054a, 2-[3-(ethylsulfonyl)-6-(trifluoromethyl)imidazo[1,2-a]pyrimidin-2-yl]-3-methyl-6-(trifluoromethyl)-3H-imidazo[4,5-b]pyridine]		≥ 90%				
CCSc1c(-c2nc3cc(C(F)(F)F)cnc3n2C)nc2c(C(F)(F)F)cc(I)cn12 [1-1-066b, 2-[3-(ethylthio)-6-iodo-8-(trifluoromethyl)imidazo[1,2-a]pyridin-2-yl]-3-methyl-6-(trifluoromethyl)-3H-imidazo[4,5-b]pyridine]					≥ 50%	
CCS(=O)(=O)c1c(-c2nc3cc(S(=O)(=O)C(F)(F)F)ccc3o2)nc2ccc(C(F)(F)F)cn12 [1-2-001a, 2-[3-(ethylsulfonyl)-6-(trifluoromethyl)imidazo[1,2-a]pyridin-2-yl]-5-[(trifluoromethyl)sulfonyl]benz[d]oxazole]	≥ 90%	≥ 90%	≥ 90%	≥ 90%	≥ 50%	
CCS(=O)(=O)c1c(-c2nc3cc([S+]([O-])C(F)(F)F)ccc3o2)nc2ccc(C(F)(F)F)cn12 (stereo not shown) [1-2-002a, 2-[3-(ethylsulfonyl)-6-(trifluoromethyl)imidazo[1,2-a]pyridin-2-yl]-5-[(trifluoromethyl)sulfinyl]benz[d]oxazole]	≥ 90%	≥ 90%	≥ 90%	≥ 90%		≥ 90%
CCS(=O)(=O)c1c(-c2cn3cnc(C(F)(F)C(F)(F)F)cc3n2)nc2ccc(C(F)(F)F)cn12 [1-3-008a, 2-[3-(ethylsulfonyl)-6-(trifluoromethyl)imidazo[1,2-a]pyridin-2-yl]-7-(perfluoroethyl)imidazo[1,2-c]pyrimidine]		≥ 90%	≥ 90%		≥ 50%	
CCS(=O)(=O)c1c(-c2nc3cc(C(F)(F)C(F)(F)F)ncn3c2Br)nc2ccc(C(F)(F)F)cn12 [1-3-010a, 3-bromo-2-[3-(ethylsulfonyl)-6-(trifluoromethyl)imidazo[1,2-a]pyridin-2-yl]-7-(perfluoroethyl)imidazo[1,2-c]pyrimidine]			≥ 90%	≥ 90%	≥ 50%	
CCS(=O)(=O)c1c(-c2cn3ccc(C(F)(F)F)cc3n2)nc2ccc(C(F)(F)F)cn12 [1-5-002a, 3-(ethylsulfonyl)-6,7′-bis(trifluoromethyl)-2,2′-biimidazo[1,2-a]pyridine]	≥ 90%	≥ 90%	≥ 90%	≥ 90%	≥ 50%	
CCS(=O)(=O)c1c(-c2cn3cc(C(F)(F)F)ncc3n2)nc2ccc(C(F)(F)F)cn12 [1-6-002a, 2-[3-(ethylsulfonyl)-6-(trifluoromethyl)imidazo[1,2-a]pyridin-2-yl]-6-(trifluoromethyl)imidazo[1,2-a]pyrazine]		≥ 90%	≥ 90%	≥ 90%		
CCSc1c(-c2nc3cc(C(F)(F)F)nc(C)c3n2C)nc2ccc(C(F)(F)F)cn12 [1-8-003b, 2-[3-(ethylthio)-6-(trifluoromethyl)imidazo[1,2-a]pyridin-2-yl]-3,4-dimethyl-6-(trifluoromethyl)-3H-imidazo[4,5-c]pyridine]		≥ 90%	≥ 90%			
CCSc1c(-c2nc3cc(C(F)(F)F)ncc3n2C)nc2cc(C(F)(F)F)ccn12 [1-8-005b, 2-[3-(ethylthio)-7-(trifluoromethyl)imidazo[1,2-a]pyridin-2-yl]-3-methyl-6-(trifluoromethyl)-3H-imidazo[4,5-c]pyridine]			≥ 90%			
CCSc1c(-c2nc3cnc(C(F)(F)F)cc3n2C)nc2cc(Cl)ccn12 [1-9-003b, 2-[7-chloro-3-(ethylthio)imidazo[1,2-a]pyridin-2-yl]-1-methyl-6-(trifluoromethyl)-1H-imidazo[4,5-c]pyridine]		≥ 90%			≥ 50%	
CCSc1c(-n2cc3ncc(C(F)(F)F)cc3n2)nc2cc(C(F)(F)F)ccn12 [1-10-002b, 2-[3-(ethylthio)-7-(trifluoromethyl)imidazo[1,2-a]pyridin-2-yl]-6-(trifluoromethyl)-2H-pyrazolo[4,3-b]pyridine]		≥ 90%	≥ 90%	≥ 90%	≥ 50%	
CCSc1c(-n2cc3cnc(C(F)(F)F)cc3n2)nc2cc(C(F)(F)F)ccn12 [1-11-001b, 2-[3-(ethylthio)-7-(trifluoromethyl)imidazo[1,2-a]pyridin-2-yl]-6-(trifluoromethyl)-2H-pyrazolo[4,3-c]pyridine]	≥ 90%	≥ 90%	≥ 90%	≥ 90%	≥ 50%	
CCS(=O)(=O)c1c(-c2cn3cc(C(F)(F)F)sc3n2)nc2ccc(C(F)(F)F)cn12 [1-12-001a, 6-[3-(ethylsulfonyl)-6-(trifluoromethyl)imidazo[1,2-a]pyridin-2-yl]-2-(trifluoromethyl)imidazo[2,1-b]thiazole]		≥ 90%	≥ 90%	≥ 90%	≥ 50%	
CCS(=O)(=O)c1c(-c2nc3cc(C(F)(F)F)cnc3s2)nc2cc(C(F)(F)F)ccn12 [1-13-001a, 2-[3-(ethylsulfonyl)-7-(trifluoromethyl)imidazo[1,2-a]pyridin-2-yl]-6-(trifluoromethyl)thiazolo[5,4-b]pyridine]		≥ 90%	≥ 90%			
CCS(=O)(=O)c1c(-c2nc3cc(C(F)(F)F)cnc3n2C)nc2sc(C(F)(F)F)cn12 [2-1-001a, 5-(ethylsulfonyl)-6-[3-methyl-6-(trifluoromethyl)-3H-imidazo[4,5-b]pyridin-2-yl]-2-(trifluoromethyl)imidazo[2,1-b]thiazole]	≥ 90%	≥ 90%	≥ 90%	≥ 90%	≥ 50%	
CCSc1c(-c2nc3cc(C(F)(F)F)cnc3n2C)nc2sc(C(F)(F)F)cn12 [2-1-001b, 5-(ethylthio)-6-[3-methyl-6-(trifluoromethyl)-3H-imidazo[4,5-b]pyridin-2-yl]-2-(trifluoromethyl)imidazo[2,1-b]thiazole]		≥ 90%	≥ 90%			
